# Measured values published in US8927571B2, “Pyrido[4,3-B]indoles and methods of use” (Medivation Technologies, Inc., priority 2009, dated 2015).
# Target: T1, human recombinant serotonin (5-Hydroxytryptamine) 5-HT2A receptor (Homo sapiens, UniProt P28223)
# T1 construct: expressed in transfected cells; host or cells: Chinese hamster ovary (CHO-K1) cells
# Test: Serotonin 5-HT2A radioligand binding assay ([3H]Ketanserin)
# Conditions: 0.5 nM [3H]Ketanserin, read-out: Percent Inhibition of ligand binding, Serotonin (1 μM) 5-HT2A
# Protocol: Compounds of the invention were incubated with 0.5 nM [^3H]Ketanserin for 60 min at 25° C. Non-specific binding was estimated in the presence of 1 μM Mianserin. Receptor proteins were filtered and washed, the filters were then counted to determine [^3H]Ketanserin specifically bound. Compounds were screened at 1 μM or lower, using 1% DMSO as vehicle. Biochemical assay results are presented as the percent inhibition of specific binding in Table 4.
# T1 sequence (P28223 whole entry): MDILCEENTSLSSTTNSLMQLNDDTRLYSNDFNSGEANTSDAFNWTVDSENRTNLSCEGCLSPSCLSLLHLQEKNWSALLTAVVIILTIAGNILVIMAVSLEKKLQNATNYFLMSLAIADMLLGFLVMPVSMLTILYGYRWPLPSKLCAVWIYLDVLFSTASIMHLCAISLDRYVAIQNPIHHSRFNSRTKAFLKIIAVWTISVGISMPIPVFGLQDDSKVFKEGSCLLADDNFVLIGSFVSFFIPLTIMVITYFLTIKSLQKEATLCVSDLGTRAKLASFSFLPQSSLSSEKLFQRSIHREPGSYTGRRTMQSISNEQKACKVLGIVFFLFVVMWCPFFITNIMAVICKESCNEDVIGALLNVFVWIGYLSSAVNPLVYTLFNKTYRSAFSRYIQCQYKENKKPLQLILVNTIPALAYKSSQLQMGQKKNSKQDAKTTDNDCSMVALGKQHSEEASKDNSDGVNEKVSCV
smiles,measurement,value
"Cc1ccc2c(c1)c1c(n2CC(O)(c2ccccc2)c2ccc(F)cc2)CCN(C)C1 (stereo not shown) [Compound 1, 2-(2,8-dimethyl-3,4-dihydro-1H-pyrido[4,3-b]indol-5(2H)-yl)-1-(4-fluorophenyl)-1-phenylethanol]",inhibition at 1 µM,97%
